Legend:
[1] = Pharmacokinetics in mouse plasma (gavage); type: in vivo; conditions: mice, gavage 100 mg/kg
[2] = tested on: MDA-MB-468; assay: Breast carcinoma cell growth, MTT, MDA-MB-468; type: cell-based; conditions: five days
[3] = Water solubility; type: physicochemical; conditions: 40° C., 30 min, no pellet after centrifugation
Experimental: (§1) The compounds were also tested for solubility in 20% propylene glycol and in water, as follows. Compounds (dry powder) were dissolved in 20% propylene glycol at a concentration of 1 mM at a temperature of 40° C. with occasional vortexing. After 30 min, the solution was centrifuged at 10,000×g for 5 min. Serial dilutions of the cleared supernatant were prepared and used to measure the compound concentrations through OD reading, relative to 1 μM standard solution of the same compound. The results of the measurement were expressed as % solubility of the compound at 1 mM in 20% propylene glycol. To determine water solubility, the compounds (dry powder) were initially dissolved in water at a concentration of 100 mM at a temperature of 40° C. with occasional vortexing. After 30 min, the solution was centrifuged at 10,000×g for 5 min, and the formation of an insoluble pellet was monitored. At subsequent steps, the compound was attempted to be dissolved at lower concentrations, until no pellet was observed after centrifugation, indicating complete solution of the compound.

[4] = molecular target: CDK8 (Homo sapiens, UniProt P49336); assay: Kd determination, CDK8; type: binding; conditions: in duplicate
Chain of CDK8 (P49336 whole entry): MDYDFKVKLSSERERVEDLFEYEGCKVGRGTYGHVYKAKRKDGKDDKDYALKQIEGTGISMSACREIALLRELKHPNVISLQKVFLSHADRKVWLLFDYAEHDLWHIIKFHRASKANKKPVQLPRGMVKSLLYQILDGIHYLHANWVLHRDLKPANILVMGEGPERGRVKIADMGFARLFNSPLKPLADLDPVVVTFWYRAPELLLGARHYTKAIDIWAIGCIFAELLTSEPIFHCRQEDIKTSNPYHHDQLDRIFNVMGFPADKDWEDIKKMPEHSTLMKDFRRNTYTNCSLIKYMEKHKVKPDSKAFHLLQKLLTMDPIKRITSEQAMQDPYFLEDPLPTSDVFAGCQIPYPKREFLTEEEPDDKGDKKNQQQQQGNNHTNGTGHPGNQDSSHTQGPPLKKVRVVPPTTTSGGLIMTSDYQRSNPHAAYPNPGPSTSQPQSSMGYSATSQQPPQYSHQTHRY
Text: (§2) (16) The results of this analysis are presented in FIGS. 6A-B in the form of an evolutionary dendrogram of the kinase family, where kinase inhibition is represented by red circles, the size of which represents the magnitude of the inhibition.

[5] = tested on: CDKI pathway (CMV promoter stimulation by p21) in HT1080 fibrosarcoma cells; assay: CDKI pathway inhibition cellular assay (CMV-GFP induction by IPTG-inducible p21); type: cell-based, human; conditions: for activity in cell-based CDKI pathway assay: CMV-GFP
Experimental: The compounds described below are shown in Table 1 and the structures of some novel compounds according to the invention are shown in FIG. 1. […] All the compounds were tested for the ability to inhibit the CDKI pathway in a cellular assay described in our previous patent application PCT/US06/01046. This assay is based on the induction of green fluorescent protein (GFP) expression from the cytomegalovirus (CMV) promoter in human HT1080 fibrosarcoma cells that express CDKI p21 from an isopropyl-β-thio-galactoside (IPTG)-inducible promoter. The compound activity as a CDKI pathway inhibitor is measured by its ability to prevent the stimulation of the CMV promoter upon the addition of p21-inducing IPTG. CMV promoter activity is measured by the ratio of GFP fluorescence to the relative cell number, as determined by staining cellular DNA with Hoechst 33342.

[6] = tested on: >450 kinases; assay: KinomeScan ATP pocket binding inhibition, rest of panel; conditions: 2,000 nM
Text: as §2

[7] = Pharmacokinetics in rat plasma; type: in vivo; conditions: i.p. 40 mg/kg
[8] = Solubility in 20% propylene glycol; type: physicochemical
Experimental: as §1

[9] = tested on: MDA-MB-157; assay: Breast carcinoma cell growth, MTT, MDA-MB-157; type: cell-based; conditions: five days
[10] = molecular target: T1, MAP4K2 (Homo sapiens, UniProt Q12851); assay: KinomeScan ATP pocket binding inhibition, MAP4K2; conditions: 2,000 nM
T1 construct: purchased KinomeScan, a division of Ambit Biosciences
T1 sequence (Q12851 1-820): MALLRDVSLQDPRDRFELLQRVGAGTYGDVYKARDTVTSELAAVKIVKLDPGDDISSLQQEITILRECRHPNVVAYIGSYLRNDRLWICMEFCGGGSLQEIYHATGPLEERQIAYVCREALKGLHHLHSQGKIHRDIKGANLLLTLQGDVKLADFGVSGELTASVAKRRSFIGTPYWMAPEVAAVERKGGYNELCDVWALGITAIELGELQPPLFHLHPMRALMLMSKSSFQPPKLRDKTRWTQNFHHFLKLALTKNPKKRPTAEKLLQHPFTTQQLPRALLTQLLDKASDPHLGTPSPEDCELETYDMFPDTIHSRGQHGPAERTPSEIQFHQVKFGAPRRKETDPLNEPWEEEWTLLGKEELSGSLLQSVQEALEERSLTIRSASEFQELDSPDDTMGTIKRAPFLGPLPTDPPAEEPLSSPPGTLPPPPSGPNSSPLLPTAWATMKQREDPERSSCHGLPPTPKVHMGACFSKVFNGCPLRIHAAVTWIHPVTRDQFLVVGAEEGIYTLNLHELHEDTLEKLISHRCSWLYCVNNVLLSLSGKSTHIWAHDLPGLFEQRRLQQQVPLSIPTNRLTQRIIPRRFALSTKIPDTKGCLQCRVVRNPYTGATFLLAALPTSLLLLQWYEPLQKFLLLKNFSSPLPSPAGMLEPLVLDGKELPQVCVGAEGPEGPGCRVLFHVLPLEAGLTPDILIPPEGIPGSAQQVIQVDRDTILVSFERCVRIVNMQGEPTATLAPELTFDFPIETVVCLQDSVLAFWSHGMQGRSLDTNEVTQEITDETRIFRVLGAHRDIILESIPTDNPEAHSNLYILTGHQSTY
Text: as §2

[11] = tested on: A549 human lung xenograft tumors; assay: Pretreatment before A549 xenograft injection; type: in vivo, CB-17 SCID mice; conditions: 5 daily i.p. 40 mg/kg before s.c. A549 injection; p<0.007 on days 21 and 24
Experimental: Mice were then injected s.c. with 1×10^6 cells of human A549 lung cancer cell line; the tumor cells were injected in the afternoon of the same day when the last dose of treatment was administered in the morning. Starting from day 7 after tumor injection, mice were monitored for tumor formation twice a week, with 3-4 day intervals, until day 24 after tumor injection; tumor volumes were calculated via caliper measurements. By the end of the study, all the mice in both groups developed measurable tumors. […] Each point represents mean and standard deviation of tumor volume within a group of 10 mice.

[12] = tested on: 4T1; assay: Breast carcinoma cell growth, MTT, 4T1; type: cell-based; conditions: five days
[13] = tested on: MDA-MB-468 TNBC tumor invasion; assay: Histological analysis of MDA-MB-468 tumor invasion (H&E); type: in vivo, female nude mice; conditions: tumors from FIG. 15B experiment
Text: At the end of the experiment shown in FIG. 15B, mice were sacrificed, tumors were removed, formalin fixed, sectioned and processed for histological analysis after H&E staining.

[14] = 12-day animal toxicity study; type: in vivo, Balb/c mice; conditions: 40 mg/kg i.p.

With `CN1CCN(C(=O)c2ccc3cc(CCNc4ncnc5ccc(C#N)cc45)ccc3c2)CC1` [SNX2-1-165] the “oral availability” value [1] was “orally available”, the peak plasma concentrations [1] was about 50 µM and the “growth inhibition, MDA-MB-468” value [2] was “dose-dependent growth inhibition”. For the same compound, the “Water Solubility” value [3] was at least 50 mM, the “Water Solubility” value ([3]; listed as 165) was “Soluble at 50 mM” and the Kd [4] was 140 nM. For the same compound, the “activity in cell-based CDKI pathway assay” value ([5]; IPTG-inducible p21) was “more active than any of the previously developed SNX2-class compounds”, the “activity in cell-based CDKI pathway assay” value ([5]; IPTG-inducible p21, listed as Senexin B) was “potently inhibited” and the EC50 ([5]; IPTG-induced p21, CMV-GFP / Hoechst 33342, read-out: Cell-based Assay EC50) was 530 nM. For the same compound, the “% inhibition of all other kinases in the panel” value [6] was at most 50%, the area under the curve (AUC) [7] was 14100 ng·h/mL and the “% solubility at 1 mM in 20% propylene glycol” value ([8]; 1 mM, 40° C., 30 min, centrifuged, OD reading) was 100%. For the same compound, the “solubility in 20% propylene glycol” value ([8]; at 1 mM) was “fully soluble”, the “growth inhibition, MDA-MB-157” value [9] was “dose-dependent growth inhibition” and the “% inhibition of MAP4K2” value [10] was 69%. The “tumor growth (tumor volume) after pretreatment” value [11] was “significantly slower tumor growth”, the “growth inhibition, 4T1” value [12] was “not inhibited except for the highest concentrations” and the “invasive or non-invasive tumor growth” value [13] was “non-invasive”. For the same compound, the “body weight gains at end of study” value ([14]; 5 daily doses, 2-day break) was “indistinguishable from the carrier-treated mice”, the “decrease in lymphocytes (blood counts)” value ([14]; 12-day study) was about 25% and the spleen weight decrease ([14]; 12-day study) was about 20%. For the same compound, the “blood counts, other cell types” value ([14]; 12-day study, relative to control mice) was “no changes”.
